One assay deals with N1E-115 cells. The experiment in a line: IncuCyte live-cell imaging, proliferation. The assay is classed as cell-based, mouse. The following applies: N1E-115, 100-350 μM; p = 0.0192 control vs 150 μM. The text has this:
(§1) In order to ascertain whether CW069 could more broadly reduce proliferation in a range of cancer cells, we carried out IncuCyte live-cell imaging on N1E-115 cells and BT549 (with lower but marked centrosome amplification) and MCF-7 (with normal centrosome numbers) breast cancer cells. Cells were imaged for 21 hr prior to treatment with DMSO control (0.2%) and various concentrations of CW069, and then imaged for a further 36 hr. […] It could also be due to another direct or indirect effect, and the role of HSET in the survival of cancer cells with normal centrosome numbers remains to be fully understood.
(§2) NHDF cells were obtained from PromoCell, and the N1E-115 and HeLa cells were obtained from ATCC/LGC Standards. The BT549, MCF-7 and MDA-MB-231 cells were kind gifts from the Caldas laboratory (CRUK Cambridge Institute) and were originally obtained from ATCC/LGC. All human cells were verified by STR genotyping and all tested negative for mycoplasma. […] Fluorescence was quantified using an Infinite 200 PRO plate-reader (Tecan) at a wavelength of 545 nm. […]
(§3) For live-cell imaging, plated cells were imaged prior to treatment for 24 hr and then after treatment for 72 hr. […] Data were analyzed as the percentage of original cell confluency in order to directly compare each compound treatment with the DMSO control.

The subject of the next assay is BT549 cells. The experiment in a line: IncuCyte live-cell imaging, proliferation. The assay is classed as cell-based, human. The following applies: BT549, 100-350 μM.
Description: as §1, §2, §3

For a further assay, the system named is MCF-7 cells. The experiment in a line: IncuCyte live-cell imaging, proliferation. The settings on record: MCF-7, 100-350 μM. In kind it is cell-based, human.
Description: as §1, §2, §3

Assay [1] addresses T1, full-length, N-terminal, 6His-tagged human HSET (Homo sapiens, UniProt Q9BW19).
T1 construct: The protocol was optimized for use with full-length, N-terminal, 6His-tagged HSET and KSP; made in house; host or cells: Sf9 insect cells (baculovirus, pFastBac1)
T1 sequence (Q9BW19 1-673): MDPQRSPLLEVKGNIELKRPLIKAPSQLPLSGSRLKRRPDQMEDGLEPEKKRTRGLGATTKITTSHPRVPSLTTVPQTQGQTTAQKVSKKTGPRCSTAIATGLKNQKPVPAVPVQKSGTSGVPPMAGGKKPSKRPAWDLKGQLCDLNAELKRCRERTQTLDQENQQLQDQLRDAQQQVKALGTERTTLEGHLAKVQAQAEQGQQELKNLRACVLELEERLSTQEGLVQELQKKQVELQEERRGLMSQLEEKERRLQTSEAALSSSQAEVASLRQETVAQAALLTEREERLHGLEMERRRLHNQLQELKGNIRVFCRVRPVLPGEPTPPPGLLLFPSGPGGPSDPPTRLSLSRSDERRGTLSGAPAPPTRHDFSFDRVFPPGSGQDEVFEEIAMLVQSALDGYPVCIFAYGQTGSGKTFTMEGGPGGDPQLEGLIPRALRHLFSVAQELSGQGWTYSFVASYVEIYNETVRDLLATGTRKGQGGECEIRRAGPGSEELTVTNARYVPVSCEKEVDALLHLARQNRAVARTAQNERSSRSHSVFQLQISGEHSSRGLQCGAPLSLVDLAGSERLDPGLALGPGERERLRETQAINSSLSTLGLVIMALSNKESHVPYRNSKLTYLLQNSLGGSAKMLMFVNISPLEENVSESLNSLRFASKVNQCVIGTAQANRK
In words: In vitro enzymatic ATPase assay (ADP-Glo), MT-stimulated activity. In kind it is biochemical. The text has this: The similarity decreases to 56% in the loop 5 binding cleft alone (residues 422–432; Figure 1A). Given the high degree of similarity between the proteins, and the potential for selective binding in the loop 5 cleft, the chemogenomics principle that similar proteins bind similar ligands was applied to HSET and KSP, and an in silico model for HSET binding was developed based on nearly 500 existing inhibitors of KSP in the ChEMBL database (see Experimental Procedures for details; [Klabunde, 2007]). Using the model parameters, we selected 200 compounds (in silico) from 20 million possibilities and further triaged them into 50 ligands that scored highest in the bioactivity model. We acquired and tested these ligands for in vitro activity using an ADP-Glo enzymatic assay (see Experimental Procedures for details; Figure 1B).
The protocol was optimized for use with full-length, N-terminal, 6His-tagged HSET and KSP, and measured the MT-stimulated activity of the proteins. Inhibition of the […] of HSET/KSP was observed spectrophotometrically by coupling the hydrolysis of ATP to oxidation of NADH via pyruvate kinase/lactate dehydrogenase reactions. The assay was initiated by […] an assay mixture containing the following components (final concentration): 6 nM protein, 0.07 mg/ml MTs (University Biologicals), […], 2 mM ATP, 2.7 mM MgCI, 1 mM phospho(enol)-pyruvate, 0.2 mM NADH, 50 μg/ml lactate dehydrogenase, 100 μg/ml pyruvate kinase, and various concentrations of inhibitor all in 50 mM Na PIPES (pH 6.8) at 37°C. The ADP-Glo detection assay (Promega) was performed as described in the manufacturer’s instructions. All compound additions were performed using a multidrop BioMek Nxp (Beckman Coulter). Plates were read using a Pherastar microplate reader (BMG Labtech).
(In ADP-Glo the light output rises with the ADP produced.)

The term IC50 denotes the concentration that inhibits the measured activity by half. As to `O=C(O)c1cc(I)ccc1NC(=O)[C@H](Cc1ccccc1)NCc1ccccc1` [CW069], the cell proliferation result in the assay with N1E-115 cells is recorded as “reduction in cell proliferation”; in the assay on BT549 cells, “antiproliferative effect”; with MCF-7 cells, “does reduce their proliferation”. In assay [1] (concentrations up to 250 μM, mean ± SD), this molecule yielded an IC50 of 75 ± 20 µM. Further, in assay [1] (from IC50 values, HSET vs KSP), the “selectivity for HSET over KSP” value is listed as approximately 4 fold.

For the origin of these results see paper PMC3898838, “Design, Synthesis, and Biological Evaluation of an Allosteric Inhibitor of HSET that Targets Cancer Cells with Supernumerary Centrosomes” (Chemistry & Biology, 2013).
